The test has as its target PPAR-alpha (Mesocricetus auratus). Put plainly: Effective concentration against hamster PPAR-alpha in Gal4 transactivation assay.
Take `CCC1(C(=O)O)Cc2cc(OCCCOc3ccc(C(C)(C)C)cc3Cl)ccc2O1` (centres undefined) [5-[3-(4-tert-Butyl-2-chloro-phenoxy)-propoxy]-2-ethyl-2,3-dihydro-benzofuran-2-carboxylic acid]: the concentration giving a half-maximal response (EC50) (commonly the midpoint of the concentration-response curve) was 280 nM.

Consider `CCC1(C(=O)O)Cc2cc(OCCCOc3ccc(OCC(F)(F)F)cc3Cl)ccc2O1` (centres undefined) [5-{3-[2-Chloro-4-(2,2,2-trifluoro-ethoxy)-phenoxy]-propoxy}-2-ethyl-2,3-dihydro-benzofuran-2-carboxylic acid], for which the concentration for a half-maximal effect (EC50) was 402 nM.

`CC(C)[C@@]1(C(=O)O)Cc2cc(OCCOc3ccc(OC(F)(F)F)cc3Cl)ccc2O1` [(R)-5-[2-(2-Chloro-4-trifluoromethoxy-phenoxy)-ethoxy]-2-isopropyl-2,3-dihydro-benzofuran-2-carboxylic acid] showed an EC50 of 370 nM.

The compound `CC(C)[C@@]1(C(=O)O)Cc2cc(OCCCOc3cc(C(F)(F)F)ccc3Cl)ccc2O1` [(R)-5-[3-(2-Chloro-5-trifluoromethyl-phenoxy)-propoxy]-2-isopropyl-2,3-dihydro-benzofuran-2-carboxylic acid] had an EC50 of 420 nM.

The values are drawn from BindingDB's records for doi:10.1021/jm050373g (Merck Research Laboratories, 2005).
